Measured values reported in article PMC4844649, “A first-in-Asian phase 1 study to evaluate safety, pharmacokinetics and clinical activity of VS-6063, a focal adhesion kinase (FAK) inhibitor in Japanese patients with advanced solid tumors” (Cancer Chemotherapy and Pharmacology, 2016).
Where “and” joins values, the source holds several entries; their conditions need not be identical. Identical values can stand only once. Entries after “also recorded” stand apart in the source; their conditions may differ.

Tests used:
recombinant human FAK = settings: in vitro; background statement, no reference given; read-out: IC50, inhibition of recombinant human FAK activity; cited from earlier work
[1] = basis of the BID schedule; first-in-human experience; cited from earlier work
CYP 2C, 2D, 3A = settings: preclinical evidence; no reference given; cited from earlier work
recombinant human Pyk2 = settings: in vitro; background statement, no reference given; read-out: IC50, inhibition of recombinant human Pyk2 activity; cited from earlier work
[2] = phase 1 safety and tolerability (CTCAE v4.03) in Japanese patients with advanced solid tumors; assay type: in vivo; settings: for Grade 3 AE of unconjugated hyperbilirubinemia: 200 mg BID cohort; for dose-limiting toxicities (DLTs): 200–600 mg BID
Description: This was a phase 1, open-label, dose-escalation study to evaluate the safety and PK of VS-6063, a FAK inhibitor in Japanese subjects with advanced solid tumor malignancies. This study was expected to enroll up to 18 evaluable subjects with non-hematologic malignancies if 6 subjects were assigned at each of the 3 planned dose levels of 200, 400, and 600 mg BID. VS-6063 was administered orally, BID, in continuous 21 day cycles. Subject enrollment proceeded according to a standard 3 + 3 design. In the absence of DLT, each subject received oral VS-6063 (BID) for a minimum of 21 days of continuous daily dosing (1 cycle) and could continue to receive additional cycles of study treatment until disease progression was documented or other treatment discontinuation criteria were met. All patients within a cohort were required to complete 1 cycle (21 days) of dosing with <1 of 3 or <2 of 6 subjects experiencing a DLT prior to escalation to the next dose level in a new cohort. Three subjects were to be treated at each dose level until the first instance of DLT, after which up to 6 subjects were to be treated at that dose level. […] The MTD was defined as the highest dose level studied at which <1 subject out of 3 or <2 subjects out of 6 experienced a DLT. The RP2D was to be determined in discussion among the sponsor, medical monitor, and investigators. Observations related to PK and any VS-6063-related toxicities were included in the rationale supporting the RP2D. Safety and tolerability was assessed by the incidence and severity of AEs as determined by National Cancer Institute (NCI) Common Terminology Criteria for Adverse Events (CTCAE v4.03). The antitumor activity of study treatment was assessed according to the Response Evaluation Criteria in Solid Tumors (RECIST v1.1).

[3] = 200 mg BID, N = 3, listed as defactinib
[4] = 400 mg BID, N = 3, listed as defactinib
[5] = 600 mg BID, N = 3, listed as defactinib
[6] = Total, N = 9, listed as defactinib

CNC(=O)c1ccc(Nc2ncc(C(F)(F)F)c(NCc3nccnc3N(C)S(C)(=O)=O)n2)cc1 [VS-6063, defactinib]
IC50 (recombinant human FAK): 0.6 nM | observed human half-life [1]: 9.0 h | potential for CYP 2C-, 2D- or 3A-mediated drug interactions (CYP 2C, 2D, 3A): low potential | IC50 (recombinant human Pyk2): 0.6 nM | Grade 3 AE of unconjugated hyperbilirubinemia [2]: Only one subject | Grade 3 AE of unconjugated hyperbilirubinemia ([2]; listed as defactinib): Only one patient | Anemia, treatment-related adverse event ([2]; 200 mg BID, N = 3): 0 n (%) | Aspartate aminotransferase increased, treatment-related adverse event ([2]; 200 mg BID, N = 3): 1 (33.3) n (%) | Blood alkaline phosphatase increased, treatment-related adverse event ([2]; 200 mg BID, N = 3): 2 (66.7) n (%) | Blood bilirubin increased, treatment-related adverse event ([2]; 200 mg BID, N = 3): 3 (100.0) n (%) | Decreased appetite, treatment-related adverse event ([2]; 200 mg BID, N = 3): 2 (66.7) n (%) | Diarrhea, treatment-related adverse event ([2]; 200 mg BID, N = 3): 0 n (%) | Fatigue, treatment-related adverse event ([2]; 200 mg BID, N = 3): 2 n (%) and 2 (66.7) n (%) | Headache, treatment-related adverse event ([2]; 200 mg BID, N = 3): 0 n (%) | Nausea, treatment-related adverse event ([2]; 200 mg BID, N = 3): 1 (33.3) n (%) | Blood bilirubin increased, treatment-related adverse event [2, 3]: 3 n (%) | Nausea, treatment-related adverse event [2, 3]: 1 n (%) | Anemia, treatment-related adverse event ([2]; 400 mg BID, N = 3): 0 n (%) | Aspartate aminotransferase increased, treatment-related adverse event ([2]; 400 mg BID, N = 3): 0 n (%) | Blood alkaline phosphatase increased, treatment-related adverse event ([2]; 400 mg BID, N = 3): 0 n (%) | Blood bilirubin increased, treatment-related adverse event ([2]; 400 mg BID, N = 3): 2 (66.7) n (%) | Decreased appetite, treatment-related adverse event ([2]; 400 mg BID, N = 3): 1 (33.3) n (%) | Diarrhea, treatment-related adverse event ([2]; 400 mg BID, N = 3): 1 (33.3) n (%) | Fatigue, treatment-related adverse event ([2]; 400 mg BID, N = 3): 1 n (%) and 1 (33.3) n (%) | Headache, treatment-related adverse event ([2]; 400 mg BID, N = 3): 1 (33.3) n (%) | Nausea, treatment-related adverse event ([2]; 400 mg BID, N = 3): 0 n (%) | Blood bilirubin increased, treatment-related adverse event [2, 4]: 2 n (%) | Diarrhea, treatment-related adverse event [2, 4]: 1 n (%) | Anemia, treatment-related adverse event ([2]; 600 mg BID, N = 3): 2 (66.7) n (%) | Aspartate aminotransferase increased, treatment-related adverse event ([2]; 600 mg BID, N = 3): 1 (33.3) n (%) | Blood alkaline phosphatase increased, treatment-related adverse event ([2]; 600 mg BID, N = 3): 0 n (%) | Blood bilirubin increased, treatment-related adverse event ([2]; 600 mg BID, N = 3): 2 (66.7) n (%) | Decreased appetite, treatment-related adverse event ([2]; 600 mg BID, N = 3): 1 (33.3) n (%) | Diarrhea, treatment-related adverse event ([2]; 600 mg BID, N = 3): 2 (66.7) n (%) | Fatigue, treatment-related adverse event ([2]; 600 mg BID, N = 3): 3 n (%) and 3 (100.0) n (%) | Headache, treatment-related adverse event ([2]; 600 mg BID, N = 3): 1 (33.3) n (%) | Nausea, treatment-related adverse event ([2]; 600 mg BID, N = 3): 1 (33.3) n (%) | Blood bilirubin increased, treatment-related adverse event [2, 5]: 2 n (%) | Diarrhea, treatment-related adverse event [2, 5]: 2 n (%) | Nausea, treatment-related adverse event [2, 5]: 1 n (%) | recommended Phase 2 dose (RP2D) ([2]; Japanese subjects): 400 mg BID | Anemia, treatment-related adverse event ([2]; Total, N = 9): 2 (22.2) n (%) | Aspartate aminotransferase increased, treatment-related adverse event ([2]; Total, N = 9): 2 (22.2) n (%) | Blood alkaline phosphatase increased, treatment-related adverse event ([2]; Total, N = 9): 2 (22.2) n (%) | Blood bilirubin increased, treatment-related adverse event ([2]; Total, N = 9): 7 (77.8) n (%) | Decreased appetite, treatment-related adverse event ([2]; Total, N = 9): 4 (44.4) n (%) | Diarrhea, treatment-related adverse event ([2]; Total, N = 9): 3 (33.3) n (%) | Fatigue, treatment-related adverse event ([2]; Total, N = 9): 6 (66.7) n (%) | Headache, treatment-related adverse event ([2]; Total, N = 9): 2 (22.2) n (%) | Nausea, treatment-related adverse event ([2]; Total, N = 9): 2 (22.2) n (%) | Blood bilirubin increased, treatment-related adverse event [2, 6]: 7 n (%) | Decreased appetite, treatment-related adverse event [2, 6]: 4 n (%) | Diarrhea, treatment-related adverse event [2, 6]: 3 n (%) | Fatigue, treatment-related adverse event [2, 6]: 6 n (%) | Nausea, treatment-related adverse event [2, 6]: 2 n (%) | AEs leading to death, SAEs, AEs leading to early study withdrawal ([2]; all dose cohorts): no AEs leading to death or SAEs, and no AEs leading to early study withdrawal | concurrent increases in ALT or AST above ULN in subjects with hyperbilirubinemia ([2]; all dose cohorts): no increase in ALT or AST values associated with the increases in bilirubin | proteinuria ([2]; all dose cohorts): no subject developed any grade of proteinuria | concurrent increases in ALT or AST above ULN in subjects with hyperbilirubinemia ([2]; all dose cohorts, listed as defactinib): None of these subjects had concurrent increases in ALT or AST above ULN | tolerability ([2]; all dose levels investigated): well tolerated at all dose levels investigated; also recorded: acceptable safety profile | ECG parameters and QTc interval ([2]; any dose cohort): No clinically meaningful changes in any ECG parameter were observed for any dose cohort and no subject had a QTc interval ≥500 ms or QTc increase from baseline >30 ms | dose-limiting toxicities (DLTs) ([2]; any dose cohort): No dose-limiting toxicities were observed at any dose level | dose-limiting toxicities (DLTs) ([2]; any dose cohort, listed as defactinib): No DLTs were reported in any dose cohort | subjects requiring dose modification for increased bilirubin ([2]; of the 9 subjects): 1 subjects | time to resolution of Grade 3 hyperbilirubinemia after onset ([2]; one patient, 200 mg cohort, following interruption of study drug): 6 days | onset of hyperbilirubinemia after initiating treatment ([2]; typical onset, asymptomatic): ≤ 2 weeks
